Test results taken from PubChem BioAssay (NCI).
Values joined by “and” are separate entries in the source; they are usually repeats but may differ in a detail not shown here. Equal values may be shown once.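 Step 1: Grow cells in 96-well plates. Step 2: Expose to compound for 48 hours at 5 concentrations. Step 3: Interpolate endpoints linearly; if unreached, use highest concentration. GI50: concentration for 50% inhibition of growth. TGI denotes the concentration required for complete inhibition of growth.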 Where a SMILES comes first, the peptide text is derived from it. [ ]: non-standard residue; d: D form. The star is where a group is joined. ξ: configuration not given here. NMeF = CN[C@@H](Cc1ccccc1)C(=O)O; NMeN = CN[C@@H](CC(N)=O)C(=O)O; NMeV = CN[C@H](C(=O)O)C(C)C; ξNMeV = CNC(C(=O)O)C(C)C; Boc = CC(C)(C)OC(=O)*; ξNMeA = CNC(C)C(=O)O; ξV = CC(C)C(N)C(=O)O

Experiments:
Test in all cases: NCI anticancer screen, dose series, 48 h
SNB-78 CNS = test system: SNB-78 CNS
HT29 colon = test system: HT29 colon
A549 NSCLC = test system: A549 NSCLC
XF 498 CNS = test system: XF 498 CNS
PC-3 prostate = test system: PC-3 prostate
MOLT-4 leukemia = test system: MOLT-4 leukemia
HCT-15 colon = test system: HCT-15 colon
RPMI-8226 leukemia = test system: RPMI-8226 leukemia
T-47D breast = test system: T-47D breast
SK-OV-3 ovarian = test system: SK-OV-3 ovarian
HOP-92 NSCLC = test system: HOP-92 NSCLC
MDA-N = test system: MDA-N
SN12C renal = test system: SN12C renal
HCT-116 colon = test system: HCT-116 colon
MCF7 breast = test system: MCF7 breast
HCC-2998 colon = test system: HCC-2998 colon
NCI-H226 lung = test system: NCI-H226 lung
HL-60(TB) leukemia = test system: HL-60(TB) leukemia
MDA-MB-435 = test system: MDA-MB-435
EKVX NSCLC = test system: EKVX NSCLC
SNB-19 CNS = test system: SNB-19 CNS
CCRF-CEM leukemia = test system: CCRF-CEM leukemia
DU-145 prostate = test system: DU-145 prostate
LOX IMVI melanoma = test system: LOX IMVI melanoma
IGROV1 ovarian = test system: IGROV1 ovarian
MDA-MB-231 breast = test system: MDA-MB-231 breast
OVCAR-4 ovarian = test system: OVCAR-4 ovarian
SF-295 CNS = test system: SF-295 CNS
U251 CNS = test system: U251 CNS
UO-31 renal = test system: UO-31 renal
DMS 273 small cell lung = test system: DMS 273 small cell lung
TK-10 renal = test system: TK-10 renal
HS 578T breast = test system: HS 578T breast
SF-539 CNS = test system: SF-539 CNS
DMS 114 small cell lung = test system: DMS 114 small cell lung
COLO 205 colon = test system: COLO 205 colon
OVCAR-8 ovarian = test system: OVCAR-8 ovarian
DLD-1 colon = test system: DLD-1 colon
A498 renal = test system: A498 renal
SK-MEL-28 melanoma = test system: SK-MEL-28 melanoma
SK-MEL-2 melanoma = test system: SK-MEL-2 melanoma
NCI-H23 lung = test system: NCI-H23 lung
CAKI-1 renal = test system: CAKI-1 renal
SF-268 CNS = test system: SF-268 CNS
ACHN renal = test system: ACHN renal
SW-620 colon = test system: SW-620 colon
SK-MEL-5 melanoma = test system: SK-MEL-5 melanoma
NCI/ADR-RES ovarian = test system: NCI/ADR-RES ovarian
OVCAR-3 ovarian = test system: OVCAR-3 ovarian
SR leukemia = test system: SR leukemia
KM20L2 colon = test system: KM20L2 colon
LXFL 529 NSCLC = test system: LXFL 529 NSCLC
UACC-257 melanoma = test system: UACC-257 melanoma
K-562 leukemia = test system: K-562 leukemia
SNB-75 CNS = test system: SNB-75 CNS
KM12 colon = test system: KM12 colon
M14 melanoma = test system: M14 melanoma
786-0 renal = test system: 786-0 renal
HOP-62 NSCLC = test system: HOP-62 NSCLC
OVCAR-5 ovarian = test system: OVCAR-5 ovarian
NCI-H460 lung = test system: NCI-H460 lung
RXF 393 renal = test system: RXF 393 renal
UACC-62 melanoma = test system: UACC-62 melanoma
BT-549 breast = test system: BT-549 breast
MALME-3M melanoma = test system: MALME-3M melanoma
NCI-H522 lung = test system: NCI-H522 lung

COC(=O)C(C)N(C)C(=O)[C@H](CC(N)=O)N(C)C(=O)[C@@H]1CCCN1C(=O)[C@H](C(C)C)N(C)C(=O)C(C(C)C)N(C)C(=O)[C@H](Cc1ccccc1)N(C)C(=O)C(NC(=O)OC(C)(C)C)C(C)C (stereo partly specified) (Boc-[ξV][NMeF][ξNMeV][NMeV]P[NMeN][ξNMeA]-OMe)
TGI (SNB-78 CNS): 40.4 µM | GI50 (HT29 colon): 23.4 µM | TGI (HT29 colon): 50 µM and 57.7 µM | GI50 (A549 NSCLC): > 100 µM | TGI (A549 NSCLC): > 100 µM | TGI (XF 498 CNS): 28.9 µM | TGI (PC-3 prostate): 50 µM | GI50 (MOLT-4 leukemia): 11.1 µM | TGI (MOLT-4 leukemia): 21.5 µM and 33.6 µM | GI50 (HCT-15 colon): 29.8 µM | TGI (HCT-15 colon): 50 µM and > 100 µM | TGI (RPMI-8226 leukemia): 41.9 µM | TGI (T-47D breast): 50 µM | GI50 (SK-OV-3 ovarian): 29.4 µM | TGI (SK-OV-3 ovarian): 50 µM and > 100 µM | GI50 (HOP-92 NSCLC): 14.6 µM | TGI (HOP-92 NSCLC): 50 µM and 27.8 µM | TGI (MDA-N): 50 µM | GI50 (SN12C renal): 17.4 µM | TGI (SN12C renal): 50 µM and 33.5 µM | TGI (HCT-116 colon): 50 µM and 31.1 µM | TGI (MCF7 breast): 50 µM | GI50 (HCC-2998 colon): 16.7 µM | TGI (HCC-2998 colon): 50 µM and 31.1 µM | GI50 (NCI-H226 lung): 20.8 µM | TGI (NCI-H226 lung): 40.2 µM and 36.6 µM | GI50 (HL-60(TB) leukemia): 4.54 µM | TGI (HL-60(TB) leukemia): 44.7 µM and 17.4 µM | TGI (MDA-MB-435): 50 µM | GI50 (EKVX NSCLC): 23.7 µM | TGI (EKVX NSCLC): > 50 µM and 61.5 µM | GI50 (SNB-19 CNS): 16.9 µM | TGI (SNB-19 CNS): 50 µM and 30.8 µM | GI50 (CCRF-CEM leukemia): 10.8 µM | TGI (CCRF-CEM leukemia): 50 µM and 33.1 µM | TGI (DU-145 prostate): 50 µM | GI50 (LOX IMVI melanoma): 3.1 µM | TGI (LOX IMVI melanoma): 20.7 µM and 19.2 µM | GI50 (IGROV1 ovarian): 16.2 µM | TGI (IGROV1 ovarian): 50 µM and 29.8 µM | TGI (MDA-MB-231 breast): 50 µM | GI50 (OVCAR-4 ovarian): 31.1 µM | TGI (OVCAR-4 ovarian): > 50 µM and 87.5 µM | GI50 (SF-295 CNS): 32.8 µM | TGI (SF-295 CNS): 26.3 µM and > 100 µM | GI50 (U251 CNS): 16.9 µM | TGI (U251 CNS): 23 µM and 30.5 µM | GI50 (UO-31 renal): 17.3 µM | TGI (UO-31 renal): 50 µM and 31.1 µM | TGI (DMS 273 small cell lung): 28.9 µM | GI50 (TK-10 renal): 18.4 µM | TGI (TK-10 renal): 50 µM and 51.8 µM | TGI (HS 578T breast): 23.6 µM | GI50 (SF-539 CNS): 18.1 µM | TGI (SF-539 CNS): 50 µM and 32.4 µM | TGI (DMS 114 small cell lung): 17.1 µM | GI50 (COLO 205 colon): 17.5 µM | TGI (COLO 205 colon): 50 µM and 35.6 µM | TGI (OVCAR-8 ovarian): 31.3 µM | TGI (DLD-1 colon): 31.8 µM | GI50 (A498 renal): 21.9 µM | TGI (A498 renal): 50 µM and 67 µM | TGI (SK-MEL-28 melanoma): 50 µM and 30.5 µM | TGI (SK-MEL-2 melanoma): 20.1 µM and 22.9 µM | GI50 (NCI-H23 lung): 20.4 µM | TGI (NCI-H23 lung): 50 µM and 40.4 µM | GI50 (CAKI-1 renal): 26.9 µM | TGI (CAKI-1 renal): > 50 µM and 55.3 µM | GI50 (SF-268 CNS): 15.6 µM | TGI (SF-268 CNS): 50 µM and 29 µM | GI50 (ACHN renal): > 100 µM | TGI (ACHN renal): > 100 µM | GI50 (SW-620 colon): 13 µM | TGI (SW-620 colon): 50 µM and 25.7 µM | GI50 (SK-MEL-5 melanoma): 15.2 µM | TGI (SK-MEL-5 melanoma): 50 µM and 28.5 µM | TGI (NCI/ADR-RES ovarian): > 50 µM | GI50 (OVCAR-3 ovarian): 17.1 µM | TGI (OVCAR-3 ovarian): 50 µM and 31.2 µM | GI50 (SR leukemia): 0.005 µM | TGI (SR leukemia): 50 µM and 21.6 µM | TGI (KM20L2 colon): > 100 µM | TGI (LXFL 529 NSCLC): 10.3 µM | GI50 (UACC-257 melanoma): 19.4 µM | TGI (UACC-257 melanoma): 50 µM and 39.4 µM | GI50 (K-562 leukemia): 21 µM | TGI (K-562 leukemia): 50 µM and 57.2 µM | GI50 (SNB-75 CNS): 17.2 µM | TGI (SNB-75 CNS): 21.1 µM and 31.9 µM | GI50 (KM12 colon): 18.8 µM | TGI (KM12 colon): 22.8 µM and 37.3 µM | TGI (M14 melanoma): 50 µM and 30.6 µM | GI50 (786-0 renal): 29.7 µM | TGI (786-0 renal): 50 µM and > 100 µM | GI50 (HOP-62 NSCLC): 19.1 µM | TGI (HOP-62 NSCLC): 31.5 µM and 38.8 µM | GI50 (OVCAR-5 ovarian): 97.2 µM | TGI (OVCAR-5 ovarian): > 100 µM | GI50 (NCI-H460 lung): 17.4 µM | TGI (NCI-H460 lung): 50 µM and 39 µM | TGI (RXF 393 renal): 29.8 µM | GI50 (UACC-62 melanoma): 17.5 µM | TGI (UACC-62 melanoma): 20.3 µM and 36.8 µM | TGI (BT-549 breast): 32.3 µM | TGI (MALME-3M melanoma): 32.5 µM | TGI (NCI-H522 lung): 50 µM and 29.8 µM
